Consider 19 compounds from US12264159B2, “Functionalized heterocycles as antiviral agents” (Enanta Pharmaceuticals, Inc., priority 2018, dated 2025).

The structures appear in SMILES notation.

One series has as its system HBV in 2.2.15 cells. Kind of series: 2.2.15 cells: viral product in cell lysates quantified via quantitative real time PCR. The format is cell-based, hepatitis B virus (HBV). As to conditions: Hepatitis B virus, 120 h, day 5 post treatment, 50% reduction of viral product vs no drug controls, readout (qPCR, HBsAg or HBeAg) not specified for the column. In outline: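 2.2.15 cells (35,000/well, DMEM/F12, 10% FBS, G418) were treated with 5-fold serial compound dilutions, 0.5% DMSO final. After 5 days, lysates were quantified by qPCR, or supernatant HBsAg/HBeAg by ELISA; EC50 is the concentration giving 50% reduction versus no-drug controls.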
Background: In qPCR the cycle at which signal appears reflects the starting amount.

The nature of series [1]: Compound induced cellular toxicity in HepG2 cells, ATPlite 1Step. To be noted: human, three days exposure, 50% reduction of total ATP vs no drug controls. The format is cell-based. How it is done:
At day 3, post seeding cells are treated with ATPlite 1Step according to the manufacturer's instructions.

Usually EC50 stands for the concentration that produces a half-maximal response. As a reminder, the CC50 is the concentration that lowers cell viability or growth by half.

On to `CC(C)(C)[C@@H]1Cn2nc(-c3cccc4c3OCCCO4)cc2-c2cc(=O)c(C(=O)O)cn21` [Example 43, (R)-6-(tert-butyl)-2-(3,4-dihydro-2H-benzo[b][1,4]dioxepin-6-yl)-10-oxo-5,6-dihydro-10H-pyrazolo[1,5-a]pyrido[2,2-c]pyrazine-12-carboxylic acid], for which, in the series with HBV in 2.2.15 cells, the EC50 was < 0.1 µM. Also, the half-maximal cytotoxic concentration (CC50) at 3 days in series [1] is > 25 µM.

Turning to `CC(C)[C@@H]1Cn2nc(C3CC3)c(-c3cccc(F)c3)c2-c2cc(=O)c(C(=O)O)cn21` [Example 134, (R)-2-cyclopropyl-1-(3-fluorophenyl)-6-isopropyl-10-oxo-5,6-dihydro-10H-pyrazolo[1,5-a]pyrido[2,1-c]pyrazine-9-carboxylic acid], the EC50 with HBV in 2.2.15 cells is < 0.1 µM. For the same compound, in series [1], the CC50 at 3 days is > 25 µM.

As for `CCOc1cccc(F)c1-c1cc2n(n1)C[C@@H](C(C)(C)C)n1cc(C(=O)O)c(=O)cc1-2` [Example 74, (R)-6-(tert-butyl)-2-(2-ethoxy-6-fluorophenyl)-10-oxo-5,6-dihydro-10H-pyrazolo[1,5-a]pyrido[2,2-c]pyrazine-12-carboxylic acid], in the series on HBV in 2.2.15 cells, the EC50 is < 0.1 µM. Also, in series [1], the 50% cytotoxic concentration (CC50) at 3 days was > 25 µM.

The compound `CC(C)(C)[C@@H]1Cn2nc(-c3c(F)cccc3C(N)=O)cc2-c2cc(=O)c(C(=O)O)cn21` [Example 53, (R)-6-(tert-butyl)-2-(2-carbamoyl-6-fluorophenyl)-10-oxo-5,6-dihydro-10H-pyrazolo[1,5-a]pyrido[2,2-c]pyrazine-12-carboxylic acid] gave an EC50 with HBV in 2.2.15 cells of 0.2 to 1 µM. Also, the CC50 at 3 days in series [1] is > 25 µM.

`COc1ccccc1-c1cc2n(n1)C[C@@H](C(C)(C)C)n1cc(C(=O)O)c(=O)cc1-2` [Example 12]: in the series with HBV in 2.2.15 cells, the EC50 is < 0.1 µM. Also, in series [1], the CC50 at 3 days was > 25 µM.

As for `CCCCOc1ccccc1-c1cc2n(n1)C[C@@H](C(C)(C)C)n1cc(C(=O)O)c(=O)cc1-2` [Example 78, (R)-2-(2-butoxyphenyl)-6-(tert-butyl)-10-oxo-5,6-dihydro-10H-pyrazolo[1,5-a]pyrido[2,2-c]pyrazine-12-carboxylic acid], the EC50 in the series on HBV in 2.2.15 cells is < 0.1 µM. For the same compound, in series [1], the CC50 at 3 days is > 25 µM.

Turning to `CC(C)(C)[C@@H]1Cn2nc(C3CC3)c(-c3ccccc3F)c2-c2cc(=O)c(-c3ncn[nH]3)cn21` [Example 198, (R)-6-(tert-butyl)-2-cyclopropyl-1-(2-fluorophenyl)-9-(1H-1,2,4-triazol-5-yl)-5,6-dihydro-10H-pyrazolo[1,5-a]pyrido[2,1-c]pyrazin-10-one], in the series on HBV in 2.2.15 cells, the EC50 was < 0.1 µM. For the same compound, the CC50 at 3 days in series [1] is > 25 µM.

As to `CC(C)c1ccccc1-c1cc2n(n1)C[C@@H](C(C)(C)C)n1cc(C(=O)O)c(=O)cc1-2` [Example 83, (R)-6-(tert-butyl)-2-(2-isopropylphenyl)-10-oxo-5,6-dihydro-10H-pyrazolo[1,5-a]pyrido[2,2-c]pyrazine-12-carboxylic acid], the EC50 in the series on HBV in 2.2.15 cells lay within 0.2 to 1 µM. Moreover, the CC50 at 3 days in series [1] is > 25 µM.

`CC(C)(C)[C@@H]1Cn2nc(C3CC3)c(-c3ccoc3)c2-c2cc(=O)c(C(=O)O)cn21` [Example 152, (R)-6-(tert-butyl)-2-cyclopropyl-1-(furan-3-yl)-10-oxo-5,6-dihydro-10H-pyrazolo[1,5-a]pyrido[2,1-c]pyrazine-9-carboxylic acid]: the EC50 in the series on HBV in 2.2.15 cells was < 0.1 µM. Moreover, in series [1], the CC50 at 3 days was > 25 µM.

As to `CCOc1ccc(F)cc1-c1cc2n(n1)C[C@@H](C(C)(C)C)n1cc(C(=O)O)c(=O)cc1-2` [Example 73, (R)-6-(tert-butyl)-2-(2-ethoxy-5-fluorophenyl)-10-oxo-5,6-dihydro-10H-pyrazolo[1,5-a]pyrido[2,2-c]pyrazine-12-carboxylic acid], the EC50 in the series with HBV in 2.2.15 cells was < 0.1 µM. In series [1], the CC50 at 3 days is > 25 µM.

Turning to `CC(C)(C)[C@@H]1Cn2nc(-c3cc(F)c(F)cc3N)cc2-c2cc(=O)c(C(=O)O)cn21` [Example 64, (R)-2-(2-amino-4,5-difluorophenyl)-6-(tert-butyl)-10-oxo-5,6-dihydro-10H-pyrazolo[1,5-a]pyrido[2,2-c]pyrazine-12-carboxylic acid], the EC50 in the series on HBV in 2.2.15 cells is < 0.1 µM. Besides, the CC50 at 3 days in series [1] is > 25 µM.

As to `CC(C)(C)[C@@H]1Cn2nc(-c3cccc4occc34)cc2-c2cc(=O)c(C(=O)O)cn21` [Example 28, (R)-2-(benzofuran-4-yl)-6-(tert-butyl)-10-oxo-5,6-dihydro-10H-pyrazolo[1,5-a]pyrido[2,2-c]pyrazine-12-carboxylic acid], the concentration giving a half-maximal response (EC50) with HBV in 2.2.15 cells was < 0.1 µM. In series [1], the CC50 at 3 days was > 25 µM.

The compound `CC(C)(C)[C@@H]1Cn2nc(-c3ccccc3CO)cc2-c2cc(=O)c(C(=O)O)cn21` [Example 84, (R)-6-(tert-butyl)-2-(2-(hydroxymethyl)phenyl)-10-oxo-5,6-dihydro-10H-pyrazolo[1,5-a]pyrido[2,2-c]pyrazine-12-carboxylic acid] came in with an EC50 in the series on HBV in 2.2.15 cells of 0.2 to 1 µM. Also, the CC50 at 3 days in series [1] is > 25 µM.

`CC(C)(C)[C@@H]1Cn2nc(C3CC3)c(-c3cccc4c3OC(F)(F)O4)c2-c2cc(=O)c(C(=O)O)cn21` [Example 150, (R)-6-(tert-butyl)-2-cyclopropyl-1-(2,2-difluorobenzo[d][1,3]dioxol-4-yl)-10-oxo-5,6-dihydro-10H-pyrazolo[1,5-a]pyrido[2,1-c]pyrazine-9-carboxylic acid]: the half-maximal effective concentration (EC50) in the series with HBV in 2.2.15 cells is < 0.1 µM. For the same compound, the CC50 at 3 days in series [1] was > 25 µM.

In the case of `CC(C)(C)[C@@H]1Cn2ncc(-c3ccccc3OC(F)(F)F)c2-c2cc(=O)c(C(=O)O)cn21` [Example 115, (R)-6-(tert-butyl)-10-oxo-1-(2-(trifluoromethoxy)phenyl)-5,6-dihydro-10H-pyrazolo[1,5-a]pyrido[2,1-c]pyrazine-9-carboxylic acid], in the series on HBV in 2.2.15 cells, the 50% effective concentration (EC50) was < 0.1 µM. For the same compound, the CC50 at 3 days in series [1] was > 25 µM.

For the compound `CNc1ncc(-c2cc3n(n2)C[C@@H](C(C)(C)C)n2cc(C(=O)O)c(=O)cc2-3)cn1` [Example 14, (R)-6-(tert-butyl)-2-(2-(methylamino)pyrimidin-5-yl)-10-oxo-5,6-dihydro-10H-pyrazolo[1,5-a]pyrido[2,2-c]pyrazine-12-carboxylic acid], the EC50 in the series with HBV in 2.2.15 cells was in the range of 0.2 to 1 µM. The cytotoxic concentration (CC50) at 3 days in series [1] is > 25 µM.

For `COc1ccc(OCc2ccccc2)cc1-c1cc2n(n1)C[C@@H](C(C)(C)C)n1cc(C(=O)O)c(=O)cc1-2` [Example 36, (R)-2-(5-(benzyloxy)-2-methoxyphenyl)-6-(tert-butyl)-10-oxo-5,6-dihydro-10H-pyrazolo[1,5-a]pyrido[2,2-c]pyrazine-12-carboxylic acid], in the series with HBV in 2.2.15 cells, the EC50 was < 0.1 µM. For the same compound, the CC50 at 3 days in series [1] was > 25 µM.

As for `Cc1ccccc1-c1cnn2c1-c1cc(=O)c(C(=O)O)cn1[C@H](C(C)(C)C)C2` [Example 127, (R)-6-(tert-butyl)-10-oxo-1-(o-tolyl)-5,6-dihydro-10H-pyrazolo[1,5-a]pyrido[2,1-c]pyrazine-9-carboxylic acid], in the series with HBV in 2.2.15 cells, the EC50 was < 0.1 µM. Further, the CC50 at 3 days in series [1] was > 25 µM.

Regarding `CC(C)(C)[C@@H]1Cn2nc(C3CC3)c(-c3cccc(F)c3)c2-c2cc(=O)c(C(=O)O)cn21` [Example 147, (R)-6-(tert-butyl)-2-cyclopropyl-1-(3-fluorophenyl)-10-oxo-5,6-dihydro-10H-pyrazolo[1,5-a]pyrido[2,1-c]pyrazine-9-carboxylic acid], the EC50 in the series on HBV in 2.2.15 cells is < 0.1 µM. In addition, in series [1], the CC50 at 3 days was > 25 µM.
